Laboratory results published in patent US20160367556A1, “Therapeutic Agent for Ocular Disease or Prophylactic Agent for Ocular Disease” (Japan Tobacco Inc., priority 2013, published 2016).
Several values for one entry are separate records, joined by “and”; a condition that tells them apart may be missing. Identical values can stand only once. Like-named read-outs stand apart in the source and are kept apart here.

How the values were obtained:
[1] = tested on: VEGF-induced retinal vascular permeability; test: Retinal vascular permeability suppression by intravitreal injection in rat model where VEGF-induced retinal vascular permeability was increased; format: in vivo; details: intravitreal 10, 30 or 100 μg/eye mixed with rat VEGF164 400 ng/eye; vitreous protein at 24 hours; FIG. 2
Experimental: Experiment 2. Retinal vascular permeability suppression by intravitreal injection of Compound A in rat model where VEGF-induced retinal vascular permeability was increased As experimental animals, male Brown Norway rats aged 8 weeks {CHARLES RIVER LABORATORIES JAPAN, INC.} were used. A mixture of rat VEGF164 {400 ng/eye, R&D Systems, Inc.} and Compound A (10 μg/eye, 30 μg/eye or 100 μg/eye) dissolved or suspended in a base was injected into the vitreous body of each eye of rats <Compound A-administered group>. In the vitreous body of each eye of rats of a base-administered group, a mixture of rat VEGF164 and the base of the same volume as that of the Compound A-administered group was injected. As the base, an aqueous base was used. In the vitreous body of each eye of rats of a normal control group, D-PBS (-) {Sigma-Aldrich Corporation} was injected. Each group included four rats <eight eyeballs>. At 24 hours after intravitreal injection of VEGF, rats were euthanized, and the eyeballs of the rats were enucleated while avoiding contamination with blood. […] The protein concentration in the sampled vitreous body was determined by the Bradford method. The rate of suppressing an increase of the retinal vascular permeability was calculated according to the following equation X. Rate of suppressing increase of retinal vascular permeability (%)=(PB-PX)/(PB-PA)×100 [Equation X] […]

[2] = Plasma concentration after single oral administration to rats (LC-MS); format: in vivo; details: rat, oral 100 mg/kg single; for concentration at 0.5 h / concentration at 1 h / concentration at 2 h / concentration at 4 h / concentration at 6 h / concentration at 24 h: male, Crl:CD <SD>, plasma, po, 100 mg/kg
Experimental: (§1) Experiment 3. Ocular tissue distribution and systematic exposure of Compound A orally administered or intravitreally injected
(§2) As experimental animals, male Crl:CD <SD> rats aged 8 weeks {CHARLES RIVER LABORATORIES JAPAN, INC.} were used.
(§3) Compound A suspended in a 1% (w/v) methylcellulose aqueous solution was orally administered to rats at 100 mg/kg. At 0.5, 1, 2, 4, 6 and 24 hours after oral administration, plasma and neural retina were sampled, and the concentrations of Compound A in the plasma and in the neural retina were quantified by liquid chromatography mass spectrometry <LC-MS>.
(§4) Transition of plasma concentration of Compound A orally administered (100 mg/kg) was shown in Table 1, transition of neural retina concentration of Compound A orally administered (100 mg/kg) was shown in Table 2, and transition of neural retina concentration of Compound A intravitreally injected (10 μg/eye) was shown in Table 3.

[3] = Neural retina concentration after single oral administration to rats (LC-MS); format: in vivo, rat
Experimental: as §1, §2, §3, §4

[4] = tested on: VEGF-induced retinal vascular permeability; test: Retinal vascular permeability suppression by oral administration in rat model where VEGF-induced retinal vascular permeability was increased; format: in vivo; details: oral 10, 30 or 100 mg/kg; vitreous protein 24 hours after intravitreal rat VEGF164 400 ng/eye; FIG. 1
Experimental: Experiment 1. Retinal vascular permeability suppression by oral administration of Compound A in rat model where VEGF-induced retinal vascular permeability was increased A rat model where VEGF-induced retinal vascular permeability was increased was used to evaluate the ability of suppressing an increase of the retinal vascular permeability by Compound A. The animal model was prepared with appropriate modifications based on Non-Patent Literature 3, etc. As experimental animals, male Brown Norway rats aged 8 weeks {CHARLES RIVER LABORATORIES JAPAN, INC.} were used. Inside the vitreous body of each eye of rats, rat VEGF164 {400 ng/eye, R&D Systems, Inc.} was injected <VEGF-administered group>. Inside the vitreous body of each eye of rats in a normal control group, D-PBS (-) {Sigma-Aldrich Corporation} was intravitreally injected. Each group included four rats <eight eyeballs>. […] The protein concentration in the sampled vitreous body was determined by the Bradford method. The rate of suppressing an increase of the retinal vascular permeability was calculated according to the following equation X. Rate of suppressing increase of retinal vascular permeability (%)=(PB-PX)/(PB-PA)×100 [Equation X] […]

[5] = Neural retina concentration after intravitreal injection to rats (LC-MS); format: in vivo; details: rat, intravitreal 10 μg/eye
Experimental: as §1, §2
In the vitreous body of each eye of rats, Compound A dissolved or suspended in a base was injected at 10 μg/eye. At 1, 2, 4 and 24 hours after intravitreal injection, neural retina was sampled, and the concentration of Compound A in the neural retina was quantified by LC-MS. Each group included two to three rats <four to six eyeballs>.
as §4

concentration at 0.5 h ([2]; 0.5 hr, average, read-out: Plasma concentration of Compound A, Average): 6.32 µg/mL
concentration at 0.5 h ([2]; 0.5 hr, individual animal, read-out: Plasma concentration of Compound A): 5.81 µg/mL
concentration at 1 h ([2]; 1 hr, average, read-out: Plasma concentration of Compound A, Average): 8.26 µg/mL
concentration at 1 h ([2]; 1 hr, individual animal, read-out: Plasma concentration of Compound A): 7.95 µg/mL
concentration at 2 h ([2]; 2 hr, average, read-out: Plasma concentration of Compound A, Average): 6.35 µg/mL
concentration at 2 h ([2]; 2 hr, individual animal, read-out: Plasma concentration of Compound A): 6.52 µg/mL
concentration at 4 h ([2]; 4 hr, average, read-out: Plasma concentration of Compound A, Average): 4.14 µg/mL
concentration at 4 h ([2]; 4 hr, individual animal, read-out: Plasma concentration of Compound A): 4.86 µg/mL
concentration at 6 h ([2]; 6 hr, average, read-out: Plasma concentration of Compound A, Average): 4.05 µg/mL
concentration at 6 h ([2]; 6 hr, individual animal, read-out: Plasma concentration of Compound A): 3.04 µg/mL
concentration at 24 h ([2]; 24 hr, average, read-out: Plasma concentration of Compound A, Average): 0.02 µg/mL
concentration at 24 h ([2]; 24 hr, individual animal, read-out: Plasma concentration of Compound A): 0.03 µg/mL
Plasma concentration of Compound A ([2]; 0.5 hr, individual animal): 6.83 µg/mL
Plasma concentration of Compound A ([2]; 1 hr, individual animal): 8.57 µg/mL
Plasma concentration of Compound A ([2]; 2 hr, individual animal): 6.18 µg/mL
Plasma concentration of Compound A ([2]; 4 hr, individual animal): 3.41 µg/mL
Plasma concentration of Compound A ([2]; 6 hr, individual animal): 5.06 µg/mL
Plasma concentration of Compound A ([2]; 24 hr, individual animal): 0.02 µg/mL
passage through the blood-retina barrier [3]: passes through the blood-retina barrier
concentration at 0.5 h ([3]; male, Crl:CD <SD>, rat, neural retina, po, 100 mg/kg, rat, oral 100 mg/kg single, 0.5 hr, average, read-out: Neural retina concentration of Compound A, Average): 3.74 µg/mL
concentration at 0.5 h ([3]; male, Crl:CD <SD>, rat, neural retina, po, 100 mg/kg, rat, oral 100 mg/kg single, 0.5 hr, individual eye, read-out: Neural retina concentration of Compound A): 2.96 µg/mL
concentration at 1 h ([3]; male, Crl:CD <SD>, rat, neural retina, po, 100 mg/kg, rat, oral 100 mg/kg single, 1 hr, average, read-out: Neural retina concentration of Compound A, Average): 3.86 µg/mL
concentration at 1 h ([3]; male, Crl:CD <SD>, rat, neural retina, po, 100 mg/kg, rat, oral 100 mg/kg single, 1 hr, individual eye, read-out: Neural retina concentration of Compound A): 3.93 µg/mL
concentration at 2 h ([3]; male, Crl:CD <SD>, rat, neural retina, po, 100 mg/kg, rat, oral 100 mg/kg single, 2 hr, average, read-out: Neural retina concentration of Compound A, Average): 2.72 µg/mL
concentration at 2 h ([3]; male, Crl:CD <SD>, rat, neural retina, po, 100 mg/kg, rat, oral 100 mg/kg single, 2 hr, individual eye, read-out: Neural retina concentration of Compound A): 2.66 µg/mL
concentration at 4 h ([3]; male, Crl:CD <SD>, rat, neural retina, po, 100 mg/kg, rat, oral 100 mg/kg single, 4 hr, average, read-out: Neural retina concentration of Compound A, Average): 2.39 µg/mL
concentration at 4 h ([3]; male, Crl:CD <SD>, rat, neural retina, po, 100 mg/kg, rat, oral 100 mg/kg single, 4 hr, individual eye, read-out: Neural retina concentration of Compound A): 2.3 µg/mL
concentration at 6 h ([3]; male, Crl:CD <SD>, rat, neural retina, po, 100 mg/kg, rat, oral 100 mg/kg single, 6 hr, average, read-out: Neural retina concentration of Compound A, Average): 1.92 µg/mL
Neural retina concentration of Compound A ([3]; rat, oral 100 mg/kg single, 0.5 hr, individual eye, 100 mg/kg): 4.42 µg/mL and 4.89 µg/mL and 2.70 µg/mL
Neural retina concentration of Compound A ([3]; rat, oral 100 mg/kg single, 1 hr, individual eye, 100 mg/kg): 4.48 µg/mL and 3.24 µg/mL and 3.80 µg/mL
Neural retina concentration of Compound A ([3]; rat, oral 100 mg/kg single, 2 hr, individual eye, 100 mg/kg): 2.12 µg/mL and 3.38 µg/mL
Neural retina concentration of Compound A ([3]; rat, oral 100 mg/kg single, 4 hr, individual eye, 100 mg/kg): 2.54 µg/mL and 2.29 µg/mL and 2.43 µg/mL
concentration at 1 h ([5]; male, Crl:CD <SD>, neural retina, other: intravitreal injection, 10 μg/eye, 1 hr, average, read-out: Neural retina concentration of Compound A, Average): 45 µg/mL
concentration at 1 h ([5]; male, Crl:CD <SD>, neural retina, other: intravitreal injection, 10 μg/eye, 1 hr, individual eye, read-out: Neural retina concentration of Compound A): 39.5 µg/mL
concentration at 2 h ([5]; male, Crl:CD <SD>, neural retina, other: intravitreal injection, 10 μg/eye, 2 hr, average, read-out: Neural retina concentration of Compound A, Average): 9.69 µg/mL
concentration at 4 h ([5]; male, Crl:CD <SD>, neural retina, other: intravitreal injection, 10 μg/eye, 4 hr, average, read-out: Neural retina concentration of Compound A, Average): 1.55 µg/mL
Compound: C[C@H]1CN(C(=O)CC#N)[C@]12CCN(c1ncnc3[nH]ccc13)C2 [Compound A, 3-[(3S,4R)-3-Methyl-6-(7H-pyrrolo[2,3-d]pyrimidin-4-yl)-1,6-diazaspiro[3.4]octan-1-yl]-3-oxopropanenitrile]
suppression of retinal vascular permeability [1]: suppression of retinal vascular permeability
Neural retina concentration of Compound A ([3]; rat, oral 100 mg/kg single, 6 hr, individual eye, 100 mg/kg): 2.90 µg/mL and 2.24 µg/mL and 1.05 µg/mL and 1.47 µg/mL
Neural retina concentration of Compound A ([3]; rat, oral 100 mg/kg single, 24 hr, individual eye): BLQ (Below the lower limit of quantification (ca. 0.16 μg/g))
suppression of retinal vascular permeability [4]: suppression of retinal vascular permeability
Neural retina concentration of Compound A ([5]; 1 hr, individual eye): 52.66 µg/mL and 45.53 µg/mL and 42.17 µg/mL
Neural retina concentration of Compound A ([5]; 2 hr, individual eye): 6.28 µg/mL and 13.49 µg/mL and 4.73 µg/mL and 12.71 µg/mL and 15.78 µg/mL and 5.13 µg/mL
Neural retina concentration of Compound A ([5]; 4 hr, individual eye): 2.07 µg/mL and 2.64 µg/mL and 0.27 µg/mL and 1.42 µg/mL and 1.66 µg/mL and 1.26 µg/mL
Neural retina concentration of Compound A ([5]; 24 hr, individual eye): BLQ (Below the lower limit of quantification (ca. 0.16 μg/g))
